Assay results published in patent publication US20250127890A1, “COMPOSITIONS AND METHODS FOR TREATING CORONAVIRUS INFECTIOUS DISEASE-19 (COVID-19)” (THE BOARD OF REGENTS OF THE UNIVERSITY OF OKLAHOMA, priority 2021, published 2025).
Like-named read-outs stand apart in the source and are kept apart here.

Key:
[1] = test system: SARS-CoV-2-infected Calu3 cells; format: cell-based; conditions: DCLK1-IN-1 5 μM, tasquinimod 10 μM or both
[2] = test system: SARS-CoV-2-infected Huh7-RFP-DCLK1 cells with normal human PBMCs; assay: Multiplex cytokine assay of spent supernatants from infected Huh7-RFP-DCLK1 / PBMC mixed cocultures; format: cell-based; conditions: 5 μM, 48 h
Method: Tissue culture supernatants and sera were analyzed using a custom-made human Magnetic Luminex Assay Kit (LXSAHM-15; R&D Systems) for the following analytes: TNF-α, IFNα, IFNβ, IFNγ, IL-1β, IL-2, IL-4, IL-6, IL-8, IL-10, IL-17, CCL2, M-CSF, GM-CSF, and VEGF-A. Samples were processed in replicates and quantified using the BioPlex 200 System (Bio-Rad). The concentration of each analyte was expressed as pg/mg of total protein. Analyte levels in normal serum or control supernatants were set at 100% when compared to test samples.
To assess the effect of DCLK1 kinase on cytokine production during SARS-CoV-2 infection, we mixed infected Huh7-RFP-DCLK1 cells with normal human PBMCs in the presence of 5 μM DCLK1-IN-1 for 48 h. Spent supernatants were assayed for cytokines/chemokines/growth factors using a multiplex system. As with infected Calu3 cells, DCLK1-IN-1 blocked Spike (FIG. 8A, lane 2, Set 2). […] However, PBMCs were responsive to SARS-CoV-2-infected cells as indicated by increased secretion of TNF-α, IL-1β, IL-6, and IL-10 in spent media compared to uninfected cells (FIG. 8B). DCLK1-IN-1 treatment led to downregulation of cytokines involved in inflammation and viral response (TNF-α, IFNα, IFNγ, and IL-10; FIG. 8C). […] Since CCL2 participates in normal wound healing, an increase in this chemokine may contribute to tissue healing after viral clearance. […]

SARS-CoV-2 [3] = assay: TCID50 titer of infectious SARS-CoV-2 particles in culture supernatants of infected Calu3 cells; format: cell-based; conditions: treated vs untreated
[4] = test system: SARS-CoV-2 infected Calu-3 lung cells; assay: Label-free quantitative proteomic analysis of SARS-CoV-2-infected Calu-3 lung cells; format: cell-based
SARS-CoV-2 [5] = format: cell-based
[6] = mice, cited from earlier work
SARS-CoV-2 [7] = format: in vivo, K18-hACE2 mice; conditions: 10 mg/kg i.p. daily for 4 days
kinase domain of DCLK1 = target: T1, kinase domain of DCLK1 (Homo sapiens, UniProt O15075); conditions: cited from earlier work
T1 sequence (O15075 390-647 limits assumed): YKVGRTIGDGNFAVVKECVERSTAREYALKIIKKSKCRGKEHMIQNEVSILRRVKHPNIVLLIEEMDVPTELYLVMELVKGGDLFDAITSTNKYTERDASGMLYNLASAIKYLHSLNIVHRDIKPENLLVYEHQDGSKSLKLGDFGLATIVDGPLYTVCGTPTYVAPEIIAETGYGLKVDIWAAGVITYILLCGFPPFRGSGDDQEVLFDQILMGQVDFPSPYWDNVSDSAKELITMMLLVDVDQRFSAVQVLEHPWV

SARS-CoV-2 [8] = assay: Western blot of viral proteins and DCLK1 in SARS-CoV-2-infected Calu3 lung cells; format: cell-based
SARS-CoV-2 [9] = format: cell-based; remark: listed apart in the source
[10] = test system: SARS-CoV-2 nucleocapsid and membrane proteins; assay: Phosphoproteomic analysis of viral proteins in infected Calu3 cells; format: cell-based
Omicron B.1.1.529 virus = format: cell-based, SARS-CoV-2; conditions: 5 μM and 10 μM, in comparison to vehicle-treated control
GM-CSF = target: T2, GM-CSF (Homo sapiens, UniProt P04141); conditions: clinical trial; cited from earlier work
T2 construct: host or cells: COVID-19 patients (endogenous GM-CSF)
T2 sequence (P04141 18-144): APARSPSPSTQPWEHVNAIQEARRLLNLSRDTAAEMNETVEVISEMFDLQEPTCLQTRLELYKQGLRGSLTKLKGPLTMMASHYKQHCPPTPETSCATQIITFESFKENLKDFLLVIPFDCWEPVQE

Question: For `COc1cccc2c1c(O)c(C(=O)N(C)c1ccc(C(F)(F)F)cc1)c(=O)n2C` [tasquinimod], which “active forms of caspase 1 and IL-1β” value [1] is on record?
Answer: downregulated

Question: With `COc1cc(N2CCN(C)CC2)ccc1Nc1ncc2c(n1)N(C)c1ccccc1C(=O)N2CC(F)(F)F` [DCLK1-IN-1] as the molecule, how does the “CCL2 (MCP-1)” value [2] read?
Answer: increased expression

Question: What about the “cytokines involved in inflammation and viral response (TNF-α, IFNα, IFNγ, and IL-10)” value [2] of the same molecule?
Answer: downregulation

Question: And the “decrease in infectivity (TCID50)” value (SARS-CoV-2 [3]; 5 μM)?
Answer: 4 fold

Question: What about the “decrease in infectivity (TCID50)” value (SARS-CoV-2 [3]; 10 μM) of the same molecule?
Answer: 10 fold

Question: What about the nucleocapsid protein abundance ([4]; infected Calu3, proteomics) of the same molecule?
Answer: not decreased

Question: And the “viral structural proteins (membrane and Spike) and accessory proteins (ORF7a, ORF8, and ORF9b)” value ([4]; infected Calu3, proteomics)?
Answer: significantly downregulated

Question: And the “8 host proteins upregulated by SARS-CoV-2 (GSPT2, LGALS1, ENO2, H3C15, LXN, SAMD4B, SPTA1 and WDR75)” value ([4]; infected Calu3, proteomics, GSPT2, SAMD4B, WDR75 validated by Western blot)?
Answer: normalized

Question: And the “21 cellular proteins downregulated by SARS-CoV-2 infection” value ([4]; several of these proteins, data not shown)?
Answer: restored to normal

Question: What about the “effect on Spike” value (SARS-CoV-2 [5]) of the same molecule?
Answer: blocked Spike

Question: And the “adverse effects / body weight at MTD” value ([6]; 100 mg/kg)?
Answer: no adverse effects or loss of body weight

Question: And the half-life [6]?
Answer: 2.09 h

Question: And the “maximum tolerated dose (MTD)” value [6]?
Answer: 100 mg/kg

Question: And the “Dclk1 and S100A9 in lung (confocal microscopy)” value (SARS-CoV-2 [7])?
Answer: low expression

Question: What about the “expression of Spike and nucleocapsid proteins in lung (Western blot)” value (SARS-CoV-2 [7]) of the same molecule?
Answer: reduced or absent

Question: What about the “staining for Spike in lung (confocal microscopy)” value (SARS-CoV-2 [7]) of the same molecule?
Answer: rare or weak

Question: What about the “lung histopathological features (H&E)” value (SARS-CoV-2 [7]; lungs collected on day 5) of the same molecule?
Answer: significantly improved

Question: What about the Kd (kinase domain of DCLK1; binds the kinase domain of DCLK1) of the same molecule?
Answer: 109 nM

Question: And the “loss of intracellular viral proteins (nucleocapsid and Spike)” value (SARS-CoV-2 [8]; 5 μM, infected Calu3, Western blot)?
Answer: ~65%

Question: And the “loss of intracellular viral proteins (nucleocapsid and Spike)” value (SARS-CoV-2 [8]; 10 μM, infected Calu3, Western blot)?
Answer: ~95%

Question: What about the DCLK1 protein levels (SARS-CoV-2 [8]; infected Calu3, Western blot) of the same molecule?
Answer: not significantly affected

Question: And the “reduction in intracellular viral proteins (nucleocapsid and Spike)” value (SARS-CoV-2 [8]; infected Calu3, Western blot, compared to untreated control)?
Answer: strong dose-response reduction

Question: And the Spike by immunofluorescence (SARS-CoV-2 [9])?
Answer: downregulation of Spike

Question: And the “phosphorylation of five serine residues (S2, S176, S180, S201, and S202) of nucleocapsid protein” value ([10]; compared with untreated and vehicle-treated infected cells)?
Answer: significant decrease

Question: And the “phosphorylation of viral membrane protein (M) at S212, S213 and S214” value ([10]; infected cells, phosphoproteomics)?
Answer: significantly reduced

Question: What about the “active forms of caspase 1 and IL-1β” value [1] of the same molecule?
Answer: downregulated

Question: What about the “inhibition of Omicron virus production” value (Omicron B.1.1.529 virus) of the same molecule?
Answer: 80%-90%

Question: What does the source list for `COc1cc(N2CCN(C)CC2)ccc1Nc1ncc2c(n1)N(C)c1ccc(C)cc1C(=O)N2CC(F)(F)F` [DCLK1-NEG]?
Answer: binding affinity (kinase domain of DCLK1; structural analog used as negative control): low binding affinity; effect on Spike (SARS-CoV-2 [8]): did not reduce Spike

B1: lenzilumab: a GM-CSF inhibitor (antibody, chains of the INN, looked up, V domains shown)
VH: QVQLVQSGAEVKKPGASVKVSCKASGYSFTNYYIHWVRQAPGQRLEWMGWINAGNGNTKYSQKFQGRVTITRDTSASTAYMELSSLRSEDTAVYYCVRRQRFPYYFDYWGQGTLVTVSS
VL: EIVLTQSPATLSVSPGERATLSCRASQSVGTNVAWYQQKPGQAPRVLIYSTSSRATGITDRFSGSGSGTDFTLTISRLEPEDFAVYYCQQFNKSPLTFGGGTKVEIK
Question: With B1 as the molecule, how does the “survival of COVID-19 patients” value (GM-CSF) read?
Answer: significantly improved
